Reference: patent publication US9234046B2, “Treatment of renal disease” (OPSONA Therapeutics Ltd, priority 2007, dated 2016)
“And” between values parts separate entries of the source, which are not always exact repeats. Equal entries are not always repeated.

Columns and labels:
[1] = test system: C57BL/6 mice; assay: Nephrotoxic serum + Pam3CysSK4 glomerular inflammation model, 24 hours: albuminuria and glomerular thrombosis; format: in vivo
Experimental: (§1) Methods for generating nephrotoxic antibody, blood counts, processing histology, assessment of histology are disclosed in Brown H J, Lock, H R, Sacks S H, Robson M G TLR2 stimulation of intrinsic kidney cells in the induction of immune mediated glomerulonephritis, J Immunol 2006, 177(3):1925-1931, the contents of which are incorporated herein by reference. These methods were followed in the performance of the present example.
Kidney samples were fixed for 4 hours in Bouin's solution, transferred into formalin, then processed and embedded in paraffin. Sections were cut at 0.5 μm thickness and stained with periodic acid-Schiff (PAS) reagent. All samples then were assessed blindly for glomerular thrombosis by identification of the amount of PAS-positive material. In total, 50 glomeruli were assessed for each mouse for signs of glomerular thrombosis, and a score was assigned to each as follows: Grade 0, no PAS-positive material; grade 1, […]; grade 2, 25 to 50%, grade 3, 50 to 75%, and grade 4, 75 to 100%. The average glomerular thrombosis score for each mouse then was calculated. Sections also were assessed blindly for glomerular crescents. A total of 50 glomeruli were assessed, and the number of crescents (two or more layers of cells in Bowman's space) was expressed as a percentage.
(§2) The glomerular histology was assessed at 2 hours and 24 hours following disease induction with NTS. Kidneys were fixed in Bouin's solution and stained with periodic acid-Schiff reagent. At 2 hours, the number of neutrophils (identified by their characteristic nuclear morphology) per 50 glomerular cross sections was counted. At 24 hours, the amount of glomerular thrombosis was assessed by identification of the amount of periodic acid-Schiff-positive material. In total, 50 glomeruli were assessed for each animal for signs of glomerular thrombosis, and a score was assigned as follows: grade 0, no periodic acid-Schiff-positive material; grade 1, <25%; grade 2, 25-50%; grade 3, 50-75%; grade 4, 75-100%. All sections scored for neutrophils and glomerular thrombosis were done so blindly.
Mice were housed in metabolic cages for 24 hours for urine collections. The urine albumin concentration was measured by radial immunodiffusion. The sensitivity of the radial immunodiffusion assay for albumin was 0.05 mg/ml. Urine samples were diluted to 1:40 so that values fell on the standard curve.
200 ul of nephrotoxic serum containing 10 ug of the lipopetide Pam3CysSK4 (EMC microcollections) was given intravenously via the tail vein. 2 hours prior to this, mice were treated as follows. […]
The above groups were place in metabolic cages immediately after induction of disease and exsanguinated under anaesthesia 24 hours later. […] Albuminuria and thrombosis data was analysed after a logarithmic transformation.

[2] = test system: C57BL/6 mice; assay: Nephrotoxic serum + Pam3CysSK4 glomerular inflammation model, 2 hours: glomerular neutrophils and circulating leukocytes; format: in vivo; conditions: individual mice; 2 hours after disease induction; 50 glomerular cross sections counted
Experimental: as §1, §2
200 ul of nephrotoxic serum containing 10 ug of the lipopetide Pam3CysSK4 (EMC microcollections) was given intravenously via the tail vein. […]

[3] = 24 hours, versus other treatment groups

C[C@]12C=CC(=O)C=C1CC[C@@H]1[C@@H]2C(=O)C[C@@]2(C)[C@H]1CC[C@]2(O)C(=O)CO [Prednisone]
albuminuria, in words [1, 3]: did not reach significance
glomerular thrombosis, in words [1, 3]: significantly less thrombosis than PBS but not control antibody treated mice
alb, mg/ml (albuminuria) ([1]; individual mice, 24 hour urine collection, radial immunodiffusion): 2.54 mg/mL and 4.54 mg/mL and 4.71 mg/mL and 4.98 mg/mL
Thromb/50 gloms (glomeruli showing any thrombosis out of a total of 50) ([1]; individual mice, 24 hours after disease induction, treated 2 hours before): 7 /50 gloms (3×) and 3 /50 gloms
pmn/glom (neutrophils per glomerular cross section) [2]: 0.54 pmn/glom and 0.28 pmn/glom and 0.42 pmn/glom and 0.24 pmn/glom and 0.34 pmn/glom
